In ChEMBL document CHEMBL5257033, “Pyrrolidinone and pyrrolidine derivatives: Evaluation as inhibitors of InhA and Mycobacterium tuberculosis” (Eur J Med Chem, 2016):
Converted amounts (≈) assume the structure as drawn. “And” between values parts separate entries of the source, which are not always exact repeats. Equal entries are not always repeated. The source made the active and inactive calls. No cut-off for these calls is given here.

Columns and labels:
[1] = molecular target: T1, Enoyl-[acyl-carrier-protein] reductase [NADH] (Mycobacterium tuberculosis) (UniProt P9WGR1); experiment: Inhibition of Mycobacterium tuberculosis InhA at 5 uM using trans-2-dodecenoyl-Coenzyme A as substrate in presence of NADH relative to control
T1 sequence (whole entry): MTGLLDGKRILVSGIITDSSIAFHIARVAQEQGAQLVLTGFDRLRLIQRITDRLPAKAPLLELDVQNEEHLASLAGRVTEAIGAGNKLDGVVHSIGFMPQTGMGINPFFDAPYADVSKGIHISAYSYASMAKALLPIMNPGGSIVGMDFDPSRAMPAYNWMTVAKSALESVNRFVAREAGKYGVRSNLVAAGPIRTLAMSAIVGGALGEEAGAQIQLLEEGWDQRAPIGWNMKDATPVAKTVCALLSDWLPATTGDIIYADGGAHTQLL

[2] = tested on: Mycobacterium tuberculosis; experiment: Antimycobacterial activity against wild type Mycobacterium tuberculosis H37Rv assessed as bacterial growth inhibition measured after 21 days by microbroth dilution method; type: functional; details: for MIC: 504 h, time 21 day
[3] = tested on: Mycolicibacterium smegmatis; experiment: Antimycobacterial activity against Mycobacterium smegmatis MC2 155 assessed as reduction in trehalose monomycolates level at 6.2 uM incubated for 16 hrs by TLC analysis; type: functional, organism-based
[4] = tested on: Mycolicibacterium smegmatis; experiment: Antimycobacterial activity against Mycobacterium smegmatis MC2 155 assessed as reduction in trehalose dimycolates level at 6.2 uM incubated for 16 hrs by TLC analysis; type: functional, organism-based
[5] = tested on: Mycolicibacterium smegmatis; experiment: Disruption of trans-membrane electrical charge gradient of proton motive force in Mycobacterium smegmatis by DiSC3(5)-probe based fluorescence assay; type: functional, organism-based
[6] = tested on: Mycolicibacterium smegmatis; experiment: Antimycobacterial activity against Mycobacterium smegmatis MC2 155 assessed as reduction in cell wall bound mycolic acid methyl esters at 6.2 uM incubated for 16 hrs by TLC analysis; type: functional, organism-based
[7] = tested on: Mycolicibacterium smegmatis; experiment: Antimycobacterial activity against Mycobacterium smegmatis MC2 155 assessed as reduction in phosphatidylethanolamine synthesis at 6.2 uM incubated for 16 hrs by TLC analysis; type: functional, organism-based
[8] = tested on: Mycolicibacterium smegmatis; experiment: Antimycobacterial activity against Mycobacterium smegmatis MC2 155 assessed as inhibition of bacterial growth at 6.2 uM incubated for 16 hrs relative to control; type: functional
MRC5 = experiment: (§1) Cytotoxicity against human MRC5 cells assessed as reduction in cell number measured after 72 hrs by Hoechst 33342 staining based microscopic analysis; type: toxicity; details: mrc5, 72 h
[9] = molecular target: T1, Enoyl-[acyl-carrier-protein] reductase [NADH] (Mycobacterium tuberculosis); experiment: Inhibition of Mycobacterium tuberculosis InhA at 50 uM using trans-2-dodecenoyl-coenzyme A as substrate in presence of NADH
[10] = as §1; type: toxicity; details: MRC5 cells, read-out: LD50
[11] = tested on: Mycobacterium tuberculosis; experiment: Antimycobacterial activity against 14C acetate-labeled Mycobacterium tuberculosis H37Ra assessed as reduction in trehalose dimycolates level at 3.7 uM incubated for 24 hrs by autoradiography based TLC analysis; type: functional, organism-based
[12] = tested on: Mycobacterium tuberculosis; experiment: Antimycobacterial activity against 14C acetate-labeled Mycobacterium tuberculosis H37Ra assessed as reduction in trehalose monomycolates level at 3.7 uM incubated for 24 hrs by autoradiography based TLC analysis; type: functional, organism-based
[13] = tested on: Mycolicibacterium smegmatis; experiment: Antimycobacterial activity against Mycobacterium smegmatis MC2 155 assessed as inhibition of bacterial growth at 2 uM incubated for 16 hrs relative to control; type: functional
[14] = tested on: Mycolicibacterium smegmatis; experiment: Antimycobacterial activity against Mycobacterium smegmatis MC2 155 assessed as inhibition of bacterial growth at 5 uM incubated for 16 hrs relative to control; type: functional
[15] = tested on: Mycolicibacterium smegmatis; experiment: Disruption of trans-membrane electrical charge gradient of proton motive force in Mycobacterium smegmatis at 30 uM by DiSC3(5)-probe based fluorescence assay; type: functional, organism-based
[16] = tested on: Mycolicibacterium smegmatis; experiment: Antimycobacterial activity against Mycobacterium smegmatis MC2 155 assessed as inhibition of bacterial growth at 10 uM incubated for 16 hrs relative to control; type: functional
[17] = tested on: Mycobacterium tuberculosis; experiment: Antimycobacterial activity against 14C acetate-labeled Mycobacterium tuberculosis H37Ra assessed as inhibition of bacterial growth at 84 uM incubated for 24 hrs by autoradiography based TLC analysis relative to control; type: functional; details: AT84
[18] = tested on: Mycobacterium tuberculosis; experiment: Antimycobacterial activity against 14C acetate-labeled Mycobacterium tuberculosis H37Ra assessed as reduction in cell wall bound mycolic acid level at 42 to 84 uM incubated for 24 hrs by autoradiography based TLC analysis; type: functional, organism-based; details: dose 42-84 µM
[19] = tested on: Mycolicibacterium smegmatis; experiment: Antimycobacterial activity against Mycobacterium smegmatis MC2 155 assessed as reduction in trehalose monomycolates level at 16.8 uM incubated for 16 hrs by TLC analysis; type: functional, organism-based
Escherichia coli [20] = experiment: Antibacterial activity against Escherichia coli BL21(DE3) assessed as inhibition of bacterial growth incubated for 4 hrs; type: functional, organism-based; details: dose 35-140 µM
[21] = tested on: Mycolicibacterium smegmatis; experiment: Antimycobacterial activity against Mycobacterium smegmatis MC2 155 assessed as inhibition of bacterial growth at 16.8 uM incubated for 16 hrs relative to control; type: functional
Escherichia coli [22] = experiment: Antibacterial activity against Escherichia coli BL21(DE3) assessed as reduction in phosphatidylethanolamine incubated for 4 hrs by TLC analysis; type: functional, organism-based
[23] = tested on: Mycolicibacterium smegmatis; experiment: Disruption of trans-membrane electrical charge gradient of proton motive force in Mycobacterium smegmatis up to 280 uM by DiSC3(5)-probe based fluorescence assay; type: functional, organism-based
[24] = tested on: Mycolicibacterium smegmatis; experiment: Antimycobacterial activity against Mycobacterium smegmatis MC2 155 assessed as reduction in trehalose dimycolates level at 16.8 uM incubated for 16 hrs by TLC analysis; type: functional, organism-based
[25] = tested on: Mycolicibacterium smegmatis; experiment: Antimycobacterial activity against Mycobacterium smegmatis MC2 155 assessed as reduction in cell wall bound mycolic acid methyl esters at 16.8 uM incubated for 16 hrs by TLC analysis; type: functional, organism-based
[26] = tested on: Mycobacterium tuberculosis; experiment: Antimycobacterial activity against 14C acetate-labeled Mycobacterium tuberculosis H37Ra assessed as reduction in trehalose dimycolates level at 42 to 84 uM incubated for 24 hrs by autoradiography based TLC analysis; type: functional, organism-based; details: dose 42-84 µM
[27] = tested on: Mycobacterium tuberculosis; experiment: Antimycobacterial activity against 14C acetate-labeled Mycobacterium tuberculosis H37Ra assessed as inhibition of bacterial growth at 42 uM incubated for 24 hrs by autoradiography based TLC analysis relative to control; type: functional
[28] = tested on: Mycobacterium tuberculosis; experiment: Antimycobacterial activity against 14C acetate-labeled Mycobacterium tuberculosis H37Ra assessed as reduction in trehalose monomycolates level at 42 to 84 uM incubated for 24 hrs by autoradiography based TLC analysis; type: functional, organism-based; details: dose 42-84 µM
[29] = tested on: Mycolicibacterium smegmatis; experiment: Antimycobacterial activity against Mycobacterium smegmatis MC2 155 assessed as reduction in phosphatidylethanolamine synthesis at 16.8 uM incubated for 16 hrs by TLC analysis; type: functional, organism-based

## O=C(c1ccccc1)N1CCC(C2c3ccccc3-c3ccccc32)C1 (stereo unspecified)
[1]
  inhibition: 50%
[2]
  MIC: > 16 µg/mL

## O=C(c1ccc2[nH]ccc2c1)N1CCN(C2c3ccccc3-c3ccccc32)CC1
[2]
  MIC: > 16 µg/mL and > 40.7 µM

## O=C(Nc1ccc(F)c(F)c1F)NC12CC3CC(CC(C3)C1)C2
[3]
  Activity: inactive
[4]
  Activity: Active
[5]
  Activity: inactive
[6]
  Activity: Active
[7]
  Activity: Active
[8]
  inhibition at 6.2 µM: 60%

## c1ccc(CN2CCC(C3c4ccccc4-c4ccccc43)C2)cc1 (stereo unspecified)
[2]
  MIC: 5 µg/mL and 15.4 µM

## Oc1cc(Cl)ccc1Oc1ccc(Cl)cc1Cl [TRICLOSAN]
[2]
  MIC: 34.5 µM and 10 µg/mL

## O=C1C(C2c3ccccc3-c3ccccc32)CCN1Cc1ccc(Cl)cc1 (stereo unspecified)
MRC5
  Activity: Non-Toxic
[2]
  MIC: 69 µM and 25 µg/mL

## O=C1C(C2c3ccccc3-c3ccccc32)CCN1c1cc(Cl)cc(Cl)c1 (stereo unspecified)
[9]
  inhibition: inactive
[2]; time 21.0 day
  Activity: inactive

## c1ccc(CCN2CCC(C3c4ccccc4-c4ccccc43)C2)cc1 (stereo unspecified)
[10]
  CC50 at 72 h: 18.9 µM
[2]
  MIC: 14.7 µM and 5 µg/mL

## O=C1C(C2c3ccccc3-c3ccccc32)CCN1CCc1ccccc1 (stereo unspecified)
[2]
  MIC: 1 µg/mL and 2.8 µM

## Clc1cc(Cl)cc(N2CCC(C3c4ccccc4-c4ccccc43)C2)c1 (stereo unspecified)
MRC5
  Activity: Non-Toxic
[2]
  MIC: 66 µM and 25 µg/mL

## CCCCCCCCCN1CCC(C2c3ccccc3-c3ccccc32)C1=O (stereo unspecified)
MRC5
  Activity: Non-Toxic
[2]
  MIC: 5 µg/mL and 13.3 µM

## O=C(c1ccccc1)N1CCC(C2c3ccccc3-c3ccccc32)C1=O (stereo unspecified)
[2]
  MIC: > 45 µM and > 16 µg/mL

## NNC(=O)c1ccncc1 [ISONIAZID]
[11]
  Activity: Active
[2]
  MIC: 0.025 µg/mL (≈ 0.182 µM)
[12]
  Activity: Active

## CCCCCCCCCN1CCC(C2c3ccccc3-c3ccccc32)C1 (stereo unspecified)
[2]
  MIC: 1 µg/mL and 2.8 µM

## N#CC(C#N)=NNc1cccc(Cl)c1 [CARBONYL CYANIDE M-CHLOROPHENYLHYDRAZONE]
[13]
  inhibition at 2 µM: 0.2%
[14]
  inhibition at 5 µM: 9%
[15]
  Activity: Active
[16]
  inhibition at 10 µM: 66%

## CCCCCCCCC(=O)N1CCC(C2c3ccccc3-c3ccccc32)C1=O (stereo unspecified)
[2]
  MIC: 4 µg/mL and 10.3 µM

## CCCCCCCCC(=O)N1CCC(C2c3ccccc3-c3ccccc32)C1 (stereo unspecified)
[2]
  MIC: 21.3 µM and 8 µg/mL

## O=C1C(C2c3ccccc3-c3ccccc32)CCN1c1ccc(F)cc1 (stereo unspecified)
[2]
  MIC: 14.6 µM and 5 µg/mL

## Fc1ccc(N2CCC(C3c4ccccc4-c4ccccc43)C2)cc1 (stereo unspecified)
[2]
  MIC: 15.2 µM and 5 µg/mL

## O=C1C(C2c3ccccc3-c3ccccc32)CCN1Cc1ccccc1 (stereo unspecified)
[2]
  MIC: > 74 µM and > 25 µg/mL

## Clc1ccc(CN2CCC(C3c4ccccc4-c4ccccc43)C2)cc1 (stereo unspecified)
[17]
  inhibition at 84 µM: 48%
[18]
  Activity: Active
[10]
  CC50 at 72 h: 35 µM
[19]
  Activity: inactive
Escherichia coli [20]
  inhibition: Dose-Dependent Effect
[21]
  inhibition at 16.8 µM: 57%
Escherichia coli [22]
  Activity: Active
[23]
  Activity: inactive
[24]
  Activity: Active
[25]
  Activity: Active
[26]
  Activity: Active
[2]
  MIC: 1.4 µM and 0.5 µg/mL
[27]
  inhibition at 42 µM: 43%
[28]
  Activity: inactive
[29]
  Activity: Active
